The text below walks through data of ChEMBL document CHEMBL1148874, “Design, synthesis, and anti-HIV activity of 2',3'-didehydro-2',3'-dideoxyuridine (d4U), 2',3'-dideoxyuridine (ddU) phosphoramidate 'ProTide' derivatives” (Bioorg Med Chem Lett, 2007).

Series [1] in a line: Cytotoxicity against CEM/0 cells. Type of series: cell-based, CCRF-CEM. Particulars: human.
Series [2] relates to Human immunodeficiency virus 2. The experiment in a line: Inhibition of HIV2-induced cytopathogenicity in CEM/0 cells. The settings on record: Human immunodeficiency virus 2, CCRF-CEM. It counts as functional, organism-based. A general note: Cytopathic effects are the visible damage that an infection or toxin causes in cultured cells.
In series [3] the test system is Human immunodeficiency virus 1. The experiment in a line: Inhibition of HIV1-induced cytopathogenicity in CEM/0 cells. Type of series: functional, organism-based. Particulars: Human immunodeficiency virus 1, CCRF-CEM.

Structures are written as SMILES. Where only a bound is given, the exact number is not on record here.

What is called CC50 is the concentration at which the toxic effect on the cells reaches its halfway point. The low end stands for harm at low concentration, the high end for better tolerance by the cells. As usually defined, the EC50 is the concentration giving half of the maximal effect.

Turning to `CCOC(=O)[C@@H](C)NP(=O)(OC[C@@H]1C=C[C@H](n2ccc(=O)[nH]c2=O)O1)Oc1ccccc1` (some centres not stated), half-maximal cytotoxicity in series [1] (CC50) was put at 212 µM. The concentration for a half-maximal effect (EC50) in series [2] and in series [3] was over 50 µM throughout.
For the compound `C[C@@H](NP(=O)(OC[C@@H]1CC[C@H](n2ccc(=O)[nH]c2=O)O1)Oc1cccc2ccccc12)C(=O)OCc1ccccc1` (some centres not stated), half-maximal cytotoxicity in series [1] (CC50) was put at 96.9 µM. Also, the EC50 stood at 20 µM in series [2] and 15 µM in series [3].
For `C[C@@H](NP(=O)(OC[C@@H]1C=C[C@H](n2ccc(=O)[nH]c2=O)O1)Oc1cccc2ccccc12)C(=O)OCc1ccccc1` (some centres not stated), in series [1], half-maximal cytotoxicity (CC50) was put at 100 µM. Besides, the EC50 in series [2] and in series [3] was 25 µM each time.
In series [1], `O=c1ccn([C@H]2C=C[C@@H](CO)O2)c(=O)[nH]1` returned a CC50 of 207 µM. Moreover, the EC50 in series [2] and in series [3] was over 50 µM in each case.
`C[C@@H](NP(=O)(OC[C@@H]1CC[C@H](n2ccc(=O)[nH]c2=O)O1)Oc1ccccc1)C(=O)OC(C)(C)C` (some centres not stated): the CC50 in series [1] was over 250 µM. The EC50 in series [2] and in series [3] was over 250 µM in each case.
For `CCOC(=O)[C@@H](C)NP(=O)(OC[C@@H]1CC[C@H](n2ccc(=O)[nH]c2=O)O1)Oc1ccccc1` (some centres not stated), the CC50 in series [1] is over 250 µM. For the same compound, the EC50 was 93.3 µM in series [2] and 43.3 µM in series [3].
Consider `COC(=O)[C@@H](C)NP(=O)(OC[C@@H]1CC[C@H](n2ccc(=O)[nH]c2=O)O1)Oc1ccccc1` (some centres not stated), for which it took 121 µM to reach half-maximal cytotoxicity in series [1] (CC50). Besides, the half-maximal effective concentration (EC50) in series [2] was at least 50 µM; in series [3], 36.7 µM.
In the case of `C[C@@H](NP(=O)(OC[C@@H]1C=C[C@H](n2ccc(=O)[nH]c2=O)O1)Oc1ccccc1)C(=O)OC(C)(C)C` (some centres not stated), the CC50 in series [1] was over 250 µM. The EC50 in series [2] and in series [3] was over 250 µM each time.
`COC(=O)[C@@H](C)NP(=O)(OC[C@@H]1C=C[C@H](n2ccc(=O)[nH]c2=O)O1)Oc1ccccc1` (some centres not stated) gave a CC50 in series [1] of 96.6 µM. The results for the EC50 in series [2] and in series [3] were over 10 µM and over 50 µM, respectively.
In the case of `O=c1ccn([C@H]2CC[C@@H](CO)O2)c(=O)[nH]1`, in series [1], the CC50 is over 250 µM. In addition, the EC50 in series [2] and in series [3] was over 250 µM in each case.
In turn, `Cc1cn([C@H]2C=C[C@@H](CO)O2)c(=O)[nH]c1=O` [STAVUDINE] came in with a CC50 in series [1] of 174 µM. Further, the EC50 in series [2] amounted to 0.77 µM.
